Laboratory results reported in patent publication US6803385B2, “Hydroxyeicosatetraenoic acid analogs and methods of their use in treating dry eye disorders” (Alcon, Inc., priority 1999, dated 2004).

System: rabbit model of dry eye (corneal staining)
Test: Inhibition of corneal staining in a rabbit model of dry eye (ConA lacrimal gland inflammation plus desiccation, methylene blue uptake)
Assay type: in vivo, New Zealand white rabbits
Conditions: 1 μM, topical QID 50 μl, methylene blue corneal staining (A660) vs BSS vehicle
Protocol: Compounds 173 and 175 were evaluated for their ability to inhibit corneal staining in a rabbit model of dry eye, as per the following experimental protocol.
New Zealand white (NZA) rabbits (approximately 2.5 kg) were obtained from Myrtle's Rabbitry (Thompson Station, Tenn.). Animals were maintained in a controlled environment with a 12-hour on/off light cycle at 65±5° F. and at least 30% humidity. All aspects of animal handling, housing and experimentation conformed to the ARVO Statement for the Use of Animals in Ophthalmic and Vision Research.
Rabbits were randomized and dosed topically QID with 50 μl of test article or BSS® solution beginning 24 hours prior to lacrimal gland injection. […]
Desiccation was initiated three days following ConA injection by placing conscious rabbits into an environmental chamber (20%-30% humidity/75° F.). […] The concentration of the extracted dye was determined spectrophotometrically by measuring its absorbance at λ=660 nanometers (A660). Data are expressed as mean±standard deviation (S.D.). Percent inhibition was calculated as {1−[(A660test item−A660Normal)/(A660BSS−A660Normal)]}×100, where A660test item is the absorbance of dye from ConA-injected eyes dosed with the test item, A660Normal is the absorbance of dye from saline-injected eyes, and A660BSS is the absorbance of dye in ConA-injected eyes dosed with BSS® solution vehicle.

CCCCC[C@H](O)/C=C/C=C\C/C=C\C/C=C\CCCC(=O)O [Compound 15S-HETE, (15S)-(5Z,8Z,11Z,13E)-15-hydroxy-eicosa-5,8,11,13-tetraenoic acid]
% Inhibition ± S.D. (Experiment 1): 70 ± 18%
% Inhibition ± S.D. (Experiment 2): 77% ± 18%
